These results are taken from patent US20260157986A1, “METHODS OF TREATMENT OF PRIMARY BILIARY CHOLANGITIS” (Ipsen Pharma, priority 2024, published 2026).

Data set [1] concerns patients with PBC. The following applies: in vivo; cited from earlier work.
Data set [2] deals with participants with PBC with inadequate response or intolerance to UDCA. The experiment in a line: ELATIVE phase III double-blind, randomised, placebo-controlled study (GFT505B-319-1, NCT04526665). It is filed as in vivo, human. The protocol:
This was assessed based on the primary endpoint, which combined reductions in ALP and total bilirubin (TB).

Another data set concerns subjects with PBC. The experiment in a line: Clinical study, not further specified (Summary). It is filed as in vivo, human. The following applies: treatment of subjects with elafibranor.
Data set [3] concerns participants with PBC and baseline ALP >1×ULN and <1.67×ULN. Description: Phase IIIb randomised, double-blind, placebo-controlled, two-arm study (Example 1). It is filed as in vivo, human. Conditions: 80 mg once daily versus placebo; baseline ALP more than 1×ULN and at most 1.67×ULN.
Data set [4] has as its system patients with PBC. Conditions: cited from earlier work.

For `C[C@H](CCC(=O)O)[C@H]1CC[C@H]2[C@@H]3[C@@H](O)C[C@@H]4C[C@H](O)CC[C@]4(C)[C@H]3CC[C@]12C` [UDCA, Ursodeoxycholic acid], the “proportion of PBC patients intolerant to UDCA” value with patients with PBC [1] is listed as “up to 5%”.
As to `CSc1ccc(C(=O)/C=C/c2cc(C)c(OC(C)(C)C(=O)O)c(C)c2)cc1` [elafibranor], in data set [2] (compared to placebo, double-blind period), the “improvement in cholestasis (primary endpoint combining reductions in ALP and total bilirubin)” value is “greater improvement in cholestasis compared to placebo”. Also, the safety and tolerability result in data set [2] (patients with PBC) is “safe and well-tolerated”. For the same compound, in the data set with subjects with PBC, the “biochemical markers in the plasma” value was “relevant reduction of biochemical markers in the plasma”. The “prevention of clinical outcome events showing disease worsening (including progression leading to liver transplant or death)” value in data set [3] was “better than placebo”.
Take `CC[C@H]1[C@@H](O)[C@@H]2[C@H](CC[C@]3(C)[C@@H]([C@H](C)CCC(=O)O)CC[C@@H]23)[C@@]2(C)CC[C@@H](O)C[C@@H]12` [obeticholic acid]: the liver failure result in the data set with patients with PBC [4] (patients with advanced cirrhosis) is “reports of patients with advanced cirrhosis developing liver failure”. For the same compound, the pruritus result in the data set on patients with PBC [4] (second line therapy) is “clinically significant pruritus has been reported in a significant portion of patients”.
